Test: Chelation test with La^3+ (HPLC chromatograms prior and subsequent to mixing)
Assay type: physicochemical
Details: prior vs subsequent to mixing with La^3+

| chelation of La^3+ indicated by shift in HPLC retention time | SMILES |
| --- | --- |
| rapid chelation of La^3+ and Ac-225 | CC(C)CCC(c1cccc(C(=O)O)n1)N1CCOCCOCCN(Cc2cccc(C(=O)O)n2)CCOCCOCC1 (centres unmarked) [TOPA-[C7]-isopentyl, 6-((16-(1-(6-carboxypyridin-2-yl)-4-methylpentyl)-1,4,10,13-tetraoxa-7,16-diazacyclooctadecan-7-yl)methyl)picolinic acid] |
| rapid chelation of La^3+ | O=C(O)c1cccc(CN2CCOCCOCCN(C(c3ccccc3)c3cccc(C(=O)O)n3)CCOCCOCC2)n1 (centres unmarked) [TOPA-[C7]-phenyl, 6-((16-((6-carboxypyridin-2-yl)(phenyl)methyl)-1,4,10,13-tetraoxa-7,16-diazacyclooctadecan-7-yl)methyl)picolinic acid] |
